Measured values: patent publication US8198432B2, “Porphyrin-based compounds for tumor imaging and photodynamic therapy” (Health Research, Inc., priority 2005, dated 2012)
Values joined by “and” are separate entries in the source; they are usually repeats but may differ in a detail not shown here. Identical values can stand only once. Each block holds one molecule with its values, some of them ahead of it.

How the values were obtained:
RIF tumor cells = assay: in vitro photosensitizing efficacy (PDT, MTT assay) in RIF tumor cells; assay type: cell-based; parameters: in vitro photosensitizing efficacy compared with HPPH: dose or concentration left out as unconfirmed
Method: For evaluating in vitro photosensitizing efficacy of 3-iodobenxyloxyethyl-pyropheophorbide-a 2, RIF tumor cells were grown in alpha-DMEM with 10% fetal calf serum, penicillin and streptomycin. Cells were maintained in 5% CO2, 95% air and 100% humidity. For determining the PDT efficacy, these cells were plated in 96-well plates and a density of 1×10^4 cells well in complete media. After overnight incubation to allow the cells to attach, the HPPH and the related cold-iodo derivative 2 were individually added at variable concentrations. After 3 hr incubation in the dark at 37° C., the cells were washed once with PBS, and irradiated with light. After light treatment, the cells were washed once and placed in complete media and incubated for 48 hrs. Then 10 μl of a 4-mg/ml solution of MTT was added to each well. After incubating for 4 hr at 37° C. the MTT+ media were removed and 100 μl DMSO was added to solubilize the formazin crystals. The 96-well plate was read on a microtiter plate reader at an absorbance of 560 nm. The optimal cell kill was obtained at a concentration of 1.00 µM. The results were plotted as percent survival of the corresponding dark (drug no light) control for each compound tested. (FIG. 4) Each data point represents the mean from 3 separate experiments, and the error bars are the standard deviation. Each experiment used 5 replicate wells.

RIF cells = assay: preliminary screening of aromatic alkyl ethers for in vitro and in vivo efficacy (RIF cells); assay type: cell-based
Source text: There are several methods for labeling the compounds with iodine isotopes. Conversion of the cold iodo- to radioactive iodo- is possible, but the specific activity of the resulting product is low. […] Therefore, we prepared a series of aromatic alkyl ethers and evaluated them for in vitro (RIF cells) and in vivo efficacy (RIF cells).

RIF tumors [1] = assay: in vivo photosensitizing efficacy, tumor re-growth after laser light; conditions: C3H mice bearing RIF tumors, light at 665 nm for 30 minutes
Method: The in vivo efficacy was determined in C3H mice bearing RIF tumors (5 mice/group). The tumors were exposed to light at 665 nm (in vivo absorption) with a laser light ([…]) for 30 minutes. The tumor-regrowth was measured everyday (for details see ‘Methods’ part of the project). […] Further studies to optimize the treatment conditions at variable fluence and fluence-rates and time intervals are currently in progress.

RIF tumors [2] = assay: in vivo tumor imaging with small animal PET scanner; conditions: C3H mice bearing RIF tumors
Method: In initial experiments, the 1-124 labeled photosensitizer 2 at variable radioactive doses (35, 50 and 100 µCi) was injected in three sets of C3H mice (3 mice/group, bearing RIF tumors at the shoulder) respectively and the images were taken with a small animal PET scanner at 24, 48 and 72 h time intervals (FIG. 6 images A, B, and C). In all radioactive doses, the best images were obtained at 48 h post injection of the drug.

[3] = biodistribution of the I-124 PET agent in selected organs; assay type: in vivo, mice; parameters: unit not given here; conditions: 48 h post injection, per gram of organ
Method: After PET imaging at 48 h post-injection, a group of mice (3 mice/group) were sacrificed and the biodistribution of the I-124 PET agent in selected organs/gram were determined.

Structure (SMILES): CCC1=C(C)c2cc3[nH]c(cc4nc(c5c6[nH]c(cc1n2)c(C)c6C(=O)C5)[C@@H](CCC(=O)OC)[C@@H]4C)c(C)c3C(C)OCc1cccc(I)c1 (stereo partly drawn) [Compound 2]
concentration at which the optimal cell kill was obtained (RIF tumor cells; 3 hr incubation in the dark, light, MTT after 48 hrs): 1.00 µM
in vitro photosensitizing efficacy compared with HPPH (RIF tumor cells; FIG. 4): slightly more effective
efficacy in preliminary screening compared with HPPH (RIF cells): as effective as HPPH
time at which tumor re-growth was observed (RIF tumors [1]; dose 0.25 […]mole/kg): 10 days post-injection
time at which tumor re-growth was observed (RIF tumors [1]; dose 0.50 […]mole/kg): 15 days post-injection
in vivo efficacy (PDT) (RIF tumors [1]; dose of 1.0 and 1.5 µmol/kg, 24 hours post injection): quite effective

presence of the compound in organs other than tumor on PET images (RIF tumors [2]): especially in liver was evident
biodistribution, Blood ([3]; AVG of 3 mice): 1.12
biodistribution, Gut ([3]; AVG of 3 mice): 2.47
biodistribution, Heart ([3]; AVG of 3 mice): 0.99
biodistribution, Kidney ([3]; AVG of 3 mice): 1.10
biodistribution, Liver ([3]; AVG of 3 mice): 3.31
biodistribution, Lungs ([3]; AVG of 3 mice): 1.09
biodistribution, Muscle ([3]; AVG of 3 mice): 0.35
biodistribution, Spleen ([3]; AVG of 3 mice): 2.11
biodistribution, Stomach ([3]; AVG of 3 mice): 1.02
biodistribution, Tumor ([3]; AVG of 3 mice): 2.22
biodistribution, Blood ([3]; individual mouse (Mouse 1-3)): 1.47 and 1.33 and 0.57
biodistribution, Gut ([3]; individual mouse (Mouse 1-3)): 3.6 and 2.22 and 1.69
biodistribution, Heart ([3]; individual mouse (Mouse 1-3)): 0.79 and 1.21 and 0.98
biodistribution, Kidney ([3]; individual mouse (Mouse 1-3)): 1.09 and 1.21 and 0.99
biodistribution, Liver ([3]; individual mouse (Mouse 1-3)): 3.46 and 3.22 and 3.26
biodistribution, Lungs ([3]; individual mouse (Mouse 1-3)): 0.99 and 1.29 and 1.00
biodistribution, Muscle ([3]; individual mouse (Mouse 1-3)): 0.18 and 0.49 and 0.37
biodistribution, Spleen ([3]; individual mouse (Mouse 1-3)): 2.04 and 2.23 and 2.05
biodistribution, Stomach ([3]; individual mouse (Mouse 1-3)): 1.3 and 0.66 and 1.10
biodistribution, Tumor ([3]; individual mouse (Mouse 1-3)): 2.4 and 2.15 and 2.10
Structure (SMILES): CCC1=C(C)c2cc3[nH]c(cc4nc(c5c6[nH]c(cc1n2)c(C)c6C(=O)C5)[C@@H](CCC(=O)OC)[C@@H]4C)c(C)c3C(C)OCc1cccc([124I])c1 (stereo partly drawn) [I-124 labeled photosensitizer 4]
